In ChEMBL document CHEMBL3046599, “Synthesis and local anaesthetic activities of 2-aminothiazole/thiadiazole analogues of lidocaine” (Med Chem Res, 2012):

Key:
Oryctolagus cuniculus = test: Corneal anaesthetic activity in New Zealand Oryctolagus cuniculus (rabbit) assessed as inhibition of Frey's horse hair-induced blink reflex at 2 % solution relative to lidocaine; type: functional
Mus musculus = test: Local anaesthetic activity in sc dosed Mus musculus Swiss (mouse) tail assessed as loss of pain reflex measured with in 30 secs; type: functional, organism-based
Rattus norvegicus [1] = test: Local anaesthetic activity in Rattus norvegicus Wistar (rat) sciatic nerve block model assessed as time duration of loss of motor activity at 2 % solution measured until first sign of motor activity
Rattus norvegicus [2] = test: Local anaesthetic activity in Rattus norvegicus Wistar (rat) sciatic nerve block model assessed as time duration of loss of motor activity at 1 % solution measured over 45 min post injection; type: functional

| Compound | inhibition (INH) (Oryctolagus cuniculus) [%] | IC50 (Mus musculus) [mM] | Time (Rattus norvegicus [1]) [min] | Time (Rattus norvegicus [2]) [min] |
| --- | --- | --- | --- | --- |
| CCN(CC)CC(=O)Nc1nc(-c2ccc(F)cc2Cl)cs1 | 44.3 | 23 | 45 | 25 |
| CCN(CC)CC(=O)Nc1nnc(Cc2ccc(OC)cc2)s1 | 54.2 | 36 | 72 | 77 |
| CCN(CC)CC(=O)Nc1nnc(Cc2ccc(F)cc2)s1 | 88.3 | 17 | 210 | 90 |
| O=C(CN1CCCCC1)Nc1nc(-c2ccc(F)cc2Cl)cs1 | 42.6 | 7.2 | 160 | 40 |
| COc1ccc(Cc2nnc(NC(=O)CN3CCCCC3)s2)cc1 | 34.8 | 24 | 160 | 35 |
| O=C(CN1CCCCC1)Nc1nnc(Cc2ccc(F)cc2)s1 | 92.6 | 6.6 | 180 | 40 |
| O=C(CN1CCOCC1)Nc1nc(-c2ccc(F)cc2Cl)cs1 | 25.6 | 32 | 150 | 75 |
| COc1ccc(Cc2nnc(NC(=O)CN3CCOCC3)s2)cc1 | 40.2 | 47 | 63 | 117 |
| O=C(CN1CCOCC1)Nc1nnc(Cc2ccc(F)cc2)s1 | 72.1 | 12.3 | 50 | 25 |
| CCN(CC)CC(=O)Nc1c(C)cccc1C.Cl | – | 9.2 | 117 | 65 |
